From ChEMBL document CHEMBL1128883, “Synthesis and bioassay of a protein tyrosine phosphatase inhibitor, dephostatin” (Bioorg Med Chem Lett, 1995)

Key:
[1] = target: T1, Tyrosine-protein phosphatase non-receptor type 1 (Homo sapiens) (UniProt P18031); test: The rate constant for the inactivation of mammalian Protein-tyrosine phosphatase 1 (PTP1 ) was evaluated
T1 sequence (whole entry): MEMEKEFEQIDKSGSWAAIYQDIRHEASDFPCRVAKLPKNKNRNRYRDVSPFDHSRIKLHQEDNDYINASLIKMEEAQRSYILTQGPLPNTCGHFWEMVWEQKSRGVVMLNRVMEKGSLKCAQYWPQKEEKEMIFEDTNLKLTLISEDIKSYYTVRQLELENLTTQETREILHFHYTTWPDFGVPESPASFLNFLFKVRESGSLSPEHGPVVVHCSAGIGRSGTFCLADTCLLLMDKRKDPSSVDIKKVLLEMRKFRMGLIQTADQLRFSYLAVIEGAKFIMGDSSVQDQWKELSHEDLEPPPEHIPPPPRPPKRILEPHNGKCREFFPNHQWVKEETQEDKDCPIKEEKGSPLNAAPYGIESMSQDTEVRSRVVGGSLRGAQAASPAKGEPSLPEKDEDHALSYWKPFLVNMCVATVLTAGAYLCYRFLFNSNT

[2] = target: T1, Tyrosine-protein phosphatase non-receptor type 1 (Homo sapiens); test: Apparent pseudo-first-order rate constant of inactivation of Protein Tyrosine Phosphatase (PTP) was determined; value given as 1-25
[3] = target: T1, Tyrosine-protein phosphatase non-receptor type 1 (Homo sapiens); test: Apparent pseudo-first-order rate constant of inactivation of Protein Tyrosine Phosphatase (PTP) was determined; value given as 0.5-2.8

Compound | Rate constant [1] [M⁻¹ s⁻¹] | Rate constant [2] [mM] | Rate constant [3] [mM]
CN(N=O)c1ccccc1 | 0.0167 | 1 | 
CN(N=O)c1cc(O)ccc1O | 1.08 |  | 0.5
